In patent US9120791B2, “Indolizine compounds, a process for their preparation and pharmaceutical compositions containing them” (LES LABORATOIRES SERVIER, priority 2012, dated 2015):
Counter-ions that a name gives are not always drawn.

Columns and labels:
[1] = test system: RS4;11 leukaemia tumour line; assay: In vitro cytotoxicity (Microculture Tetrazolium Assay, 48 hours); format: cell-based; settings: Homo sapiens, RS4;11 cells, 48 hours exposure, MTT, concentration that inhibits cell viability by 50%, read-out: IC50 (nM) MTT RS4
Description: The cytotoxicity studies were carried out on the RS4;11 leukaemia tumour line.
The cells are distributed onto microplates and exposed to the test compounds for 48 hours.

Bcl-2 protein = Bcl-2 protein (Homo sapiens (Human), UniProt P10415); assay: Inhibition of Bcl-2 by the fluorescence polarisation technique; format: binding; settings: fluorescence polarisation test; concentration that inhibits fluorescence polarisation by 50%; read-out: IC50 (nM) Bcl-2 FP
Description: The fluorescence polarisation tests were carried out on microplates (384 wells). […] After incubation for 2 hours, the fluorescence polarisation is measured.

caspase 3 = assay: Induction of caspase activity in vivo (DEVDase activity in tumour lysates, RS4;11 xenograft); set-up: species or system mice (SCID strain); settings: Mus musculus; oral treatment, 50 mg/kg, 16 hours after treatment, RS4;11 xenograft in SCID mice; read-out: Activation factor (versus control), DEVDase activity in the tumours
Description: (§1) The ability of the compounds of the invention to activate caspase 3 is evaluated in a xenograft model of RS4;11 leukaemia cells.
1×10^7 RS4;11 cells are grafted sub-cutaneously into immunosuppressed mice (SCID strain). 25 to 30 days after the graft, the animals are treated orally with the various compounds. Sixteen hours after treatment, the tumour masses are recovered and lysed, and the caspase 3 activity is measured in the tumour lysates.
This enzymatic measurement is carried out by assaying the appearance of a fluorigenic cleavage product (DEVDase activity, Promega). It is expressed in the form of an activation factor corresponding to the ratio between the two caspase activities:the activity for the treated mice divided by the activity for the control mice.

[2] = test system: cleaved form of caspase 3; assay: Quantification of the cleaved form of caspase 3 in vivo (MSD ELISA, RS4;11 xenograft); set-up: species or system mice (SCID strain); settings: oral treatment, RS4;11 xenograft in SCID mice
Description: as §1
1×10^7 RS4;11 cells are grafted subcutaneously into immunosuppressed mice (SCID strain). 25 to 30 days after the graft, the animals are treated orally with the various compounds. After treatment, the tumour masses are recovered and lysed, and the cleaved (activated) form of caspase 3 is quantified in the tumour lysates.
The quantification is carried out using the “Meso Scale Discovery (MSD) ELISA platform” test, which specifically assays the cleaved form of caspase 3. It is expressed in the form of an activation factor corresponding to the ratio between the quantity of cleaved caspase 3 in the treated mice divided by the quantity of cleaved caspase 3 in the control mice.

Sequence of Bcl-2 protein (P10415 whole entry): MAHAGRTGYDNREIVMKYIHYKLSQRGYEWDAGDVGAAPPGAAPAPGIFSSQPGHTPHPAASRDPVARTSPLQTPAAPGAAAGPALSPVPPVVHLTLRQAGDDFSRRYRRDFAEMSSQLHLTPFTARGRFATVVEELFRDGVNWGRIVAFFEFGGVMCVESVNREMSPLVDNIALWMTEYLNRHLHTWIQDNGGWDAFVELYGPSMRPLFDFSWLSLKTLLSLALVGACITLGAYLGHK

SMILES	IC50 (Bcl-2 protein) [nM]	IC50 [1] [nM]	fold induction at 50 mg/kg (caspase 3)	Activation factor (versus control), cleaved caspase 3 MSD test in the tumours ([2]; 25 mg/kg)	Activation factor (versus control), cleaved caspase 3 MSD test in the tumours ([2]; 50 mg/kg)
CN1CCc2cc(N(C(=O)c3cc(-c4cc(Cl)ccc4C(=O)N4Cc5ccccc5C[C@H]4CN4CCOCC4)n4c3CCCC4)c3ccc(O)cc3)ccc21 [Example 23, 3-{5-Chloro-2-[((3S)-3-(4-morpholinylmethyl)-3,4-dihydro-2(1H)-isoquinolinyl)carbonyl]phenyl}-N-(4-hydroxyphenyl)-N-(1-methyl-2,3-dihydro-1H-indol-5-yl)-5,6,7,8-tetrahydro-1-indolizine carboxamide bis(hydrochloride)]	14	23	22.7	–	–
CCCCN(C(=O)c1cc(-c2cc3c(cc2C(=O)N2Cc4ccccc4C[C@H]2CN2CCOCC2)OCO3)n2c1CCCC2)c1ccc(O)cc1.Cl [Example 87, N-Butyl-N-(4-hydroxyphenyl)-3-{6-[((3S)-3-(4-morpholinylmethyl)-3,4-dihydro-2(1H)-isoquinolinyl)carbonyl]-1,3-benzodioxol-5-yl}-5,6,7,8-tetrahydro-1-indolizine carboxamide hydrochloride]	27	121	–	–	18.3 (50 mg/kg)
Cl.O=C(c1cc(-c2cc3c(cc2C(=O)N2Cc4ccccc4C[C@H]2CN2CCOCC2)OCO3)n2c1CCCC2)N(c1ccc(O)cc1)c1cccc(F)c1 [Example 122, N-(3-Fluorophenyl)-N-(4-hydroxyphenyl)-3-(6-{[(3S)-3-(morpholin-4-ylmethyl)-3,4-dihydroisoquinolin-2(1H)-yl]carbonyl}-1,3-benzdioxol-5-yl)-5,6,7,8-tetrahydroindolizine-1-carboxamide hydrochloride]	16	43.5	–	17.4 (25 mg/kg)	–
Cl.Cn1cc(N(C(=O)c2cc(-c3cc(Cl)ccc3C(=O)N3Cc4ccccc4C[C@H]3CN3CCOCC3)n3c2CCCC3)c2ccc(O)cc2)cn1 [Example 135, 3-(5-Chloro-2-{[(3S)-3-(morpholin-4-ylmethyl)-3,4-dihydroisoquinolin-2(1H)-yl]carbonyl}phenyl)-N-(4-hydroxyphenyl)-N-(1-methyl-1H-pyrazol-4-yl)-5,6,7,8-tetrahydroindolizine-1-carboxamide hydrochloride]	6	37.4	–	–	60 (50 mg/kg)

Now from value to compound, other results behind:

IC50 (Bcl-2 protein) [nM]	SMILES	IC50 [1] [nM]	fold induction at 50 mg/kg (caspase 3)	Activation factor (versus control), cleaved caspase 3 MSD test in the tumours ([2]; 25 mg/kg)	Activation factor (versus control), cleaved caspase 3 MSD test in the tumours ([2]; 50 mg/kg)
27	Cn1ccc2cc(N(C(=O)c3cc(-c4cc(Cl)ccc4C(=O)N4Cc5ccccc5C[C@H]4CN4CCOCC4)n4c3CCCC4)c3ccc(O)cc3)ccc21 [Example 22, 3-{5-Chloro-2-[((3S)-3-(4-morpholinylmethyl)-3,4-dihydro-2(1H)-isoquinolinyl)carbonyl]phenyl}-N-(4-hydroxyphenyl)-N-(1-methyl-1H-indol-5-yl)-5,6,7,8-tetrahydro-1-indolizine carboxamide hydrochloride]	19.1	11.3	–	–
13	Cn1ccc2cc(N(C(=O)c3cc(-c4cc5c(cc4C(=O)N4Cc6ccccc6C[C@H]4CN4CCOCC4)OCO5)n4ccccc34)c3ccc(O)cc3)ccc21 [Example 59, N-(4-Hydroxyphenyl)-N-(1-methyl-1H-indol-5-yl)-3-{6-[((3S)-3-(4-morpholinylmethyl)-3,4-dihydro-2(1H)-isoquinolinyl)carbonyl]-1,3-benzodioxol-5-yl}-1-indolizine carboxamide hydrochloride]	8.13	23	–	–
16	CN1CCc2cc(N(C(=O)c3cc(-c4cc(Cl)ccc4C(=O)N4Cc5ccccc5C[C@H]4CN4CCOCC4)n4ccccc34)c3ccc(O)cc3)ccc21 [Example 66, 3-{5-Chloro-2-[((3S)-3-(4-morpholinylmethyl)-3,4-dihydro-2(1H)-isoquinolinyl)carbonyl]phenyl}-N-(4-hydroxyphenyl)-N-(1-methyl-2,3-dihydro-1H-indol-5-yl)-1-indolizine carboxamide bis(hydrochloride)]	21.7	24.7	–	–
24	Cn1ccc2cc(N(C(=O)c3cc(-c4cc(Cl)ccc4C(=O)N4Cc5ccccc5C[C@H]4CN4CCOCC4)n4ccccc34)c3ccc(O)cc3)ccc21 [Example 67, 3-{5-Chloro-2-[((3S)-3-(4-morpholinylmethyl)-3,4-dihydro-2(1H)-isoquinolinyl)carbonyl]phenyl}-N-(4-hydroxyphenyl)-N-(1-methyl-1H-indol-5-yl)-1-indolizine carboxamide hydrochloride]	17.7	18.9	–	–
31	Cl.O=C(c1cc(-c2cc(Cl)ccc2C(=O)N2Cc3ccccc3C[C@H]2CN2CCOCC2)n2c1COCC2)N(c1ccccc1)c1ccc(O)cc1 [Example 78, 6-{5-Chloro-2-[((3S)-3-(4-morpholinylmethyl)-3,4-dihydro-2(1H)-isoquinolinyl)carbonyl]phenyl}-N-(4-hydroxyphenyl)-N-phenyl-3,4-dihydro-1H-pyrrolo[2,1-c][1,4]oxazine-8-carboxamide hydrochloride]	101	–	10.4 (25 mg/kg)	–
